In patent US11180462B2, “Microbiocidal oxadiazole derivatives” (SYNGENTA PARTICIPATIONS AG, priority 2015, dated 2021):

Legend:
[1] = system: Puccinia recondita f. Sp. Tritici; assay: Fungicidal activity against Puccinia recondita f. sp. tritici / wheat / leaf disc preventative (brown rust); assay type: in vivo; conditions: foliar, 200 ppm in the applied formulation, wheat leaf segments, preventative, compared to untreated control leaf disks, read-out: disease control
How it was run: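 Compound application precedes infection: segments of wheat cv. Kanzler, sprayed at 200 ppm, are inoculated with a spore suspension after 1 day. Incubation is at 19° C. with 75% relative humidity and 12 h light/12 h darkness, and control versus untreated leaves is rated 7 to 9 days post-application.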

[2] = system: Puccinia recondita f. Sp. Tritici; assay: Fungicidal activity against Puccinia recondita f. sp. tritici / wheat / leaf disc curative (brown rust); assay type: in vivo; conditions: foliar, 24 h, 200 ppm in the applied formulation, wheat leaf segments, curative (applied 1 day after inoculation), compared to untreated control leaf disks, read-out: disease control
Protocol: Leaf disks or leaf segments of various plant species are cut from plants grown in a greenhouse. The cut leaf disks or segments are placed in multiwell plates (24-well format) onto water agar. The leaf disks are sprayed with a test solution before (preventative) or after (curative) inoculation. Compounds to be tested are prepared as DMSO solutions (max. 10 mg/ml) which are diluted to the appropriate concentration with 0.025% Tween20 just before spraying. The inoculated leaf disks or segments are incubated under defined conditions (temperature, relative humidity, light, etc.) according to the respective test system. A single evaluation of disease level is carried out 3 to 14 days after inoculation, depending on the pathosystem. Percent disease control relative to the untreated check leaf disks or segments is then calculated.
Fungicidal Activity Against Puccinia recondita f. Sp. Tritici/Wheat/Leaf Disc Curative (Brown Rust)
Wheat leaf segments cv. Kanzler are placed on agar in multiwell plates (24-well format). The leaf segments are then inoculated with a spore suspension of the fungus. Plates were stored in darkness at 19° C. and 75% relative humidity. The formulated test compound diluted in water was applied 1 day after inoculation. The leaf segments were incubated at 19° C. and 75% relative humidity under a light regime of 12 hours light/12 hours darkness in a climate cabinet and the activity of a compound was assessed as percent disease control compared to untreated when an appropriate level of disease damage appears in untreated check leaf segments (6 to 8 days after application).
The following compounds at 200 ppm in the applied formulation give at least 80% disease control in this test when compared to untreated control leaf disks under the same conditions, which show extensive disease development.

[3] = system: Glomerella lagenarium (Colletotrichum lagenarium); assay: Fungicidal activity against Glomerella lagenarium (Colletotrichum lagenarium) liquid culture / cucumber / preventative (anthracnose); assay type: cell-based; conditions: Colletotrichum orbiculare; 20 ppm in the applied formulation; liquid culture (PDB), growth inhibition measured photometrically after 3 to 4 days; compared to untreated control; read-out: disease control
How it was run: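 Photometric read-out of fungal growth after 2–7 days, expressed as percent antifungal activity versus untreated check. Cryo-stored conidia in PDB; compound at 20 ppm; dark, 24 °C, 96% RH.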

CCN(Cc1ccc(-c2noc(C(F)(F)F)n2)cc1)C(=O)N(C)C1(COC)CC1 [Compound 3.95, 1-ethyl-3-[1-(methoxymethyl)-cyclopropyl]-3-methyl-1-[[4-[5-(trifluoromethyl)-1,2,4-oxadiazol-3-yl]phenyl]methyl]urea]
≥ 80%: pest or weed control at 200 ppm [1] | pest or weed control at 200 ppm [2] | inhibition of growth at 20 ppm [3]

CCC(C)N(Cc1ccc(-c2noc(C(F)(F)F)n2)cc1)C(=O)C1CC1(F)F (stereo not drawn) [Compound 1.371, 2,2-difluoro-N-sec-butyl-N-[[4-[5-(trifluoromethyl)-1,2,4-oxadiazol-3-yl]phenyl]methyl]-cyclopropane-carboxamide]
≥ 80%: pest or weed control at 200 ppm [1] | pest or weed control at 200 ppm [2] | inhibition of growth at 20 ppm [3]

O=C(C1CC1)N(Cc1ccc(-c2noc(C(F)(F)F)n2)cc1)Cc1ccco1 [Compound 1.474, N-(2-furylmethyl)-N-[[4-[5-(trifluoromethyl)-1,2,4-oxadiazol-3-yl]phenyl]methyl]-cyclopropane-carboxamide]
≥ 80%: pest or weed control at 200 ppm [1] | pest or weed control at 200 ppm [2] | inhibition of growth at 20 ppm [3]

COCCN(Cc1ccc(-c2noc(C(F)(F)F)n2)cc1)C(=O)COC(C)=O [Compound 1.348, [2-[2-methoxyethyl-[[4-[5-(trifluoromethyl)-1,2,4-oxadiazol-3-yl]phenyl]methyl]-amino]-2-oxo-ethyl] acetate]
≥ 80%: pest or weed control at 200 ppm [1] | pest or weed control at 200 ppm [2] | inhibition of growth at 20 ppm [3]

CCOCC(=O)N(Cc1ccc(-c2noc(C(F)(F)F)n2)cc1)CC1CCCO1 (stereo not drawn) [Compound 1.426, 2-ethoxy-N-(tetrahydrofuran-2-ylmethyl)-N-[[4-[5-(trifluoromethyl)-1,2,4-oxadiazol-3-yl]phenyl]methyl]-acetamide]
≥ 80%: pest or weed control at 200 ppm [1] | pest or weed control at 200 ppm [2] | inhibition of growth at 20 ppm [3]

C=CCN(C)C(=O)N(C)Cc1ccc(-c2noc(C(F)(F)F)n2)cc1 [Compound 3.78, 1-allyl-1,3-dimethyl-3-[[4-[5-(trifluoromethyl)-1,2,4-oxadiazol-3-yl]phenyl]methyl]urea]
≥ 80%: pest or weed control at 200 ppm [1] | pest or weed control at 200 ppm [2] | inhibition of growth at 20 ppm [3]

COCCN(C)C(=O)N(C)Cc1ccc(-c2noc(C(F)(F)F)n2)cc1 [Compound 3.67, 1-(2-methoxyethyl)-1,3-dimethyl-3-[[4-[5-(trifluoromethyl)-1,2,4-oxadiazol-3-yl]phenyl]methyl]urea]
≥ 80%: pest or weed control at 200 ppm [1] | pest or weed control at 200 ppm [2] | inhibition of growth at 20 ppm [3]

COCCC(=O)N(Cc1ccc(-c2noc(C(F)(F)F)n2)cc1)Cc1ccco1 [Compound 1.456, N-(2-furylmethyl)-3-methoxy-N-[[4-[5-(trifluoromethyl)-1,2,4-oxadiazol-3-yl]phenyl]methyl]-propanamide]
≥ 80%: pest or weed control at 200 ppm [1] | pest or weed control at 200 ppm [2] | inhibition of growth at 20 ppm [3]

C#CC(=O)N(Cc1ccc(-c2noc(C(F)(F)F)n2)cc1)CC1CCCO1 (stereo not drawn) [Compound 1.434, N-(tetrahydrofuran-2-ylmethyl)-N-[[4-[5-(trifluoromethyl)-1,2,4-oxadiazol-3-yl]phenyl]methyl] prop-2-ynamide]
≥ 80%: pest or weed control at 200 ppm [1] | pest or weed control at 200 ppm [2] | inhibition of growth at 20 ppm [3]

CCCC(=O)N(Cc1ccc(-c2noc(C(F)(F)F)n2)cc1)C(C)CC (stereo not drawn) [Compound 1.373, N-sec-butyl-N-[[4-[5-(trifluoromethyl)-1,2,4-oxadiazol-3-yl]phenyl]methyl]-butanamide]
≥ 80%: pest or weed control at 200 ppm [1] | pest or weed control at 200 ppm [2] | inhibition of growth at 20 ppm [3]

COCCCC(=O)N(Cc1ccc(-c2noc(C(F)(F)F)n2)cc1)Cc1ccco1 [Compound 1.467, N-(2-furylmethyl)-4-methoxy-N-[[4-[5-(trifluoromethyl)-1,2,4-oxadiazol-3-yl]phenyl]methyl]-butanamide]
≥ 80%: pest or weed control at 200 ppm [1] | pest or weed control at 200 ppm [2] | inhibition of growth at 20 ppm [3]

COCCCC(=O)N(Cc1ccc(-c2noc(C(F)(F)F)n2)cc1)CC1CCCO1 (stereo not drawn) [Compound 1.452, 4-methoxy-N-(tetrahydrofuran-2-ylmethyl)-N-[[4-[5-(trifluoromethyl)-1,2,4-oxadiazol-3-yl]phenyl]methyl]-butanamide]
≥ 80%: pest or weed control at 200 ppm [1] | pest or weed control at 200 ppm [2] | inhibition of growth at 20 ppm [3]

CC1(C(=O)N(Cc2ccc(-c3noc(C(F)(F)F)n3)cc2)Cc2ccco2)COC1 [Compound 1.468, N-(2-furylmethyl)-3-methyl-N-[[4-[5-(trifluoromethyl)-1,2,4-oxadiazol-3-yl]phenyl]methyl]-oxetane-3-carboxamide]
≥ 80%: pest or weed control at 200 ppm [1] | pest or weed control at 200 ppm [2] | inhibition of growth at 20 ppm [3]

CCCCC(=O)N(CCOC)Cc1ccc(-c2noc(C(F)(F)F)n2)cc1 [Compound 1.366, N-(2-methoxyethyl)-N-[[4-[5-(trifluoromethyl)-1,2,4-oxadiazol-3-yl]phenyl]methyl]-pentanamide]
≥ 80%: pest or weed control at 200 ppm [1] | pest or weed control at 200 ppm [2] | inhibition of growth at 20 ppm [3]

CON(Cc1ccc(-c2noc(C(F)(F)F)n2)cc1)C(=O)OCCCCl [Compound 2.16, 3-chloropropyl N-methoxy-N-[[4-[5-(trifluoromethyl)-1,2,4-oxadiazol-3-yl]phenyl]methyl]-carbamate]
≥ 80%: pest or weed control at 200 ppm [1] | pest or weed control at 200 ppm [2] | inhibition of growth at 20 ppm [3]

COCCN(Cc1ccc(-c2noc(C(F)(F)F)n2)cc1)C(=O)COC [Compound 1.328, 2-methoxy-N-(2-methoxyethyl)-N-[[4-[5-(trifluoromethyl)-1,2,4-oxadiazol-3-yl]phenyl]methyl]-acetamide]
≥ 80%: pest or weed control at 200 ppm [1] | pest or weed control at 200 ppm [2] | inhibition of growth at 20 ppm [3]

CON(Cc1ccc(-c2noc(C(F)(F)F)n2)cc1)C(=O)C1CC1c1ccccc1 (stereo not drawn) [Compound 1.25, N-methoxy-2-phenyl-N-[[4-[5-(trifluoromethyl)-1,2,4-oxadiazol-3-yl]phenyl]methyl]-cyclopropane-carboxamide]
≥ 80%: pest or weed control at 200 ppm [1] | pest or weed control at 200 ppm [2] | inhibition of growth at 20 ppm [3]

CON(C(=O)C1CC1)C(C)c1ccc(-c2noc(C(F)(F)F)n2)cc1 (stereo not drawn) [Compound 1.279, N-methoxy-N-[1-[4-[5-(trifluoromethyl)-1,2,4-oxadiazol-3-yl]phenyl]ethyl]-cyclopropane-carboxamide]
≥ 80%: pest or weed control at 200 ppm [1] | pest or weed control at 200 ppm [2] | inhibition of growth at 20 ppm [3]

CCN(Cc1ccc(-c2noc(C(F)(F)F)n2)cc1)C(=O)N(C)CCOC [Compound 3.85, 1-ethyl-3-(2-methoxyethyl)-3-methyl-1-[[4-[5-(trifluoromethyl)-1,2,4-oxadiazol-3-yl]phenyl]methyl]urea]
≥ 80%: pest or weed control at 200 ppm [1] | pest or weed control at 200 ppm [2] | inhibition of growth at 20 ppm [3]

O=C(C1OCCO1)N(Cc1ccc(-c2noc(C(F)(F)F)n2)cc1)Cc1ccco1 [Compound 1.473, N-(2-furylmethyl)-N-[[4-[5-(trifluoromethyl)-1,2,4-oxadiazol-3-yl]phenyl]methyl]-1,3-dioxolane-2-carboxamide]
≥ 80%: pest or weed control at 200 ppm [1] | pest or weed control at 200 ppm [2] | inhibition of growth at 20 ppm [3]

COCCN(Cc1ccc(-c2noc(C(F)(F)F)n2)cc1)C(=O)c1ccoc1 [Compound 1.362, N-(2-methoxyethyl)-N-[[4-[5-(trifluoromethyl)-1,2,4-oxadiazol-3-yl]phenyl]methyl]-furan-3-carboxamide]
≥ 80%: pest or weed control at 200 ppm [1] | pest or weed control at 200 ppm [2] | inhibition of growth at 20 ppm [3]

COCC(=O)N(Cc1ccc(-c2noc(C(F)(F)F)n2)cc1)CC1CCCO1 (stereo not drawn) [Compound 1.415, 2-methoxy-N-(tetrahydrofuran-2-ylmethyl)-N-[[4-[5-(trifluoromethyl)-1,2,4-oxadiazol-3-yl]phenyl]methyl]-acetamide]
≥ 80%: pest or weed control at 200 ppm [1] | pest or weed control at 200 ppm [2] | inhibition of growth at 20 ppm [3]

CCN(Cc1ccc(-c2noc(C(F)(F)F)n2)cc1)C(=O)N(C)C1CCC1 [Compound 3.101, 1-cyclobutyl-3-ethyl-1-methyl-3-[[4-[5-(trifluoromethyl)-1,2,4-oxadiazol-3-yl]phenyl]methyl]urea]
≥ 80%: pest or weed control at 200 ppm [1] | pest or weed control at 200 ppm [2] | inhibition of growth at 20 ppm [3]
